# Test results: US8435980B2 (AbbVie Inc., priority 2009, dated 2013)
# Target: T1, Cdc7 (BEV coexpressed huCDC7/DBF4) (Homo sapiens, UniProt O00311)
# T1 construct: made in house; host or cells: BEV (baculovirus expression vector) co-expression; insect cells are implied but no cell line is named
# Test: Cdc7 enzyme inhibition assay ([33P]ATP, biotinylated peptide substrate, FlashPlate)
# Format: biochemical
# Details: not given
# Protocol: Cdc7 (BEV coexpressed huCDC7/DBF4) is prepared internally. Cdc7 assays are conducted as follows with final concentrations as listed. […] Reactions are quenched after 1 hr by the addition of 90 μL stop buffer (50 mM EDTA, 2M NaCl). […] (Ki) for exemplary compounds.
# T1 sequence (O00311 whole entry): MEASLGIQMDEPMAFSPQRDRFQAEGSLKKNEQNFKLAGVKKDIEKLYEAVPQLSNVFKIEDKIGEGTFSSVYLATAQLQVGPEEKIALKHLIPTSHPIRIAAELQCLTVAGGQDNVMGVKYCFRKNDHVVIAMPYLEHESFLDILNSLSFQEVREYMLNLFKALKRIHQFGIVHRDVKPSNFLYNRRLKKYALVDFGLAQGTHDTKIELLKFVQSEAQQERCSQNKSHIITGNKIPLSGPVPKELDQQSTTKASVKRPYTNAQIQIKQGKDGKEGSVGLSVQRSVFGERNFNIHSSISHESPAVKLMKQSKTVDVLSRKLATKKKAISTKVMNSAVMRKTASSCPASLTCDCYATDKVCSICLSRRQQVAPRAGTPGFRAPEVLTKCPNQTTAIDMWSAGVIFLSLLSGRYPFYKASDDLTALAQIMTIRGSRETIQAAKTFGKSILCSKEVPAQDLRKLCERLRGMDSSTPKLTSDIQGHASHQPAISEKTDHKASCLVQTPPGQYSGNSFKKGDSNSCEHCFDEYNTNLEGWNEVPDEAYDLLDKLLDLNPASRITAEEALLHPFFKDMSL
# T1 sequence (Q9UBU7 whole entry partner): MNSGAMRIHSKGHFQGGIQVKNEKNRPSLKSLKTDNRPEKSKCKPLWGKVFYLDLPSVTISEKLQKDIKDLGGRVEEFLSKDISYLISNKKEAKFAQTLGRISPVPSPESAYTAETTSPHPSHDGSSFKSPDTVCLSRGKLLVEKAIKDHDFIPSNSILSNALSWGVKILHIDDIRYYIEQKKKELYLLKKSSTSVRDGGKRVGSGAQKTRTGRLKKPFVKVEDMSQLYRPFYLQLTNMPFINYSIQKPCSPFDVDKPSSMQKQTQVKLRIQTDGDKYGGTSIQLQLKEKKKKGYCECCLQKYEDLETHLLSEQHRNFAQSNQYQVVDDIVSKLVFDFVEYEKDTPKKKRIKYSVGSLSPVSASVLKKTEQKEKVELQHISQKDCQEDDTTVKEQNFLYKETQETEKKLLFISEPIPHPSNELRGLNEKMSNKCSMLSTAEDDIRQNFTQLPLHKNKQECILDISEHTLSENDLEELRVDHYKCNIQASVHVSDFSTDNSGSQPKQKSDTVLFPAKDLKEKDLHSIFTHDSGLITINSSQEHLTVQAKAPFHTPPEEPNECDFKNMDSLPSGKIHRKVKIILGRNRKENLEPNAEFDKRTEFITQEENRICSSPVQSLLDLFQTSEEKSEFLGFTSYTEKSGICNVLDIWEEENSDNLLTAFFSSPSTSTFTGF
row,Structure (SMILES),Ki
1,"Clc1cc(-c2c[nH]c3ncccc23)cc(NC2CCOCC2)n1 [Example 8, 6-chloro-4-(1H-pyrrolo[2,3-b]pyridin-3-yl)-N-tetrahydro-2H-pyran-4-ylpyridin-2-amine]",< 10 nM
2,"Fc1cc(Cl)ccc1CNc1cc(-c2c[nH]c3ncccc23)cc(Cl)n1 [Example 36, 6-chloro-N-(4-chloro-2-fluorobenzyl)-4-(1H-pyrrolo[2,3-b]pyridin-3-yl)pyridin-2-amine]",10 to 100 nM
3,"CC(C)(CO)CNc1cc(-c2c[nH]c3ncccc23)cc(Cl)n1 [Example 40, 3-{[6-chloro-4-(1H-pyrrolo[2,3-b]pyridin-3-yl)pyridin-2-yl]amino}-2,2-dimethylpropan-1-ol]",10 to 100 nM
4,"Clc1cc(-c2c[nH]c3ncccc23)cc(NCc2cccnc2Oc2cccnc2)n1 [Example 37, 6-chloro-N-{[2-(pyridin-3-yloxy)pyridin-3-yl]methyl}-4-(1H-pyrrolo[2,3-b]pyridin-3-yl)pyridin-2-amine]",10 to 100 nM

# Same assay, conditions: Table 2; Comparative Example lacking the chloro substituent versus the chloro Example
row,Structure (SMILES),Ki ratio comparisons (Ki Comparative Example/Ki Example)
1,"NC(=O)c1cc(-c2c[nH]c3ncccc23)cc(N2CCCCC2)n1 [Comparative Example 9, 6-piperidin-1-yl-4-(1H-pyrrolo[2,3-b]pyridin-3-yl)pyridine-2-carboxamide, reference compound]",84
2,"NC(=O)c1cc(-c2c[nH]c3ncccc23)cc(N[C@H]2CC[C@H](O)CC2)n1 [Comparative Example 11, 6-[(trans-4-hydroxycyclohexyl)amino]-4-(1H-pyrrolo[2,3-b]pyridin-3-yl)pyridine-2-carboxamide, reference compound]",134
3,"Cc1cc(-c2c[nH]c3ncccc23)cc(NC2CCCCC2)n1 [Comparative Example 2, N-cyclohexyl-6-methyl-4-(1H-pyrrolo[2,3-b]pyridin-3-yl)pyridin-2-amine, reference compound]",14
4,"c1cnc2[nH]cc(-c3ccnc(NC4CCCCC4)c3)c2c1 [Comparative Example 1, N-cyclohexyl-4-(1H-pyrrolo[2,3-b]pyridin-3-yl)pyridin-2-amine, reference compound]",10

# Same assay, conditions: Table 3; enzyme inhibition data (Ki)
row,Structure (SMILES),Ki
1,"CN1CCC(C2CCC(Nc3cc(-c4c[nH]c5ncccc45)cc(Cl)n3)CC2)CC1 (stereo not drawn) [Example 184, 6-chloro-N-[4-(1-methylpiperidin-4-yl)cyclohexyl]-4-(1H-pyrrolo[2,3-b]pyridin-3-yl)pyridin-2-amine]",< 10 nM
2,"Cn1cnc(S(=O)(=O)NCC(C)(C)CNc2cc(-c3c[nH]c4ncccc34)cc(Cl)n2)c1 [Example 298, N-(3-{[6-chloro-4-(1H-pyrrolo[2,3-b]pyridin-3-yl)pyridin-2-yl]amino}-2,2-dimethylpropyl)-1-methyl-1H-imidazole-4-sulfonamide]",< 10 nM
3,"O=C1c2ccccc2C(=O)N1CCS(=O)(=O)N[C@H]1CC[C@H](Nc2cc(-c3c[nH]c4ncccc34)cc(Cl)n2)CC1 [Example 358, N-(trans-4-{[6-chloro-4-(1H-pyrrolo[2,3-b]pyridin-3-yl)pyridin-2-yl]amino}cyclohexyl)-2-(1,3-dioxo-1,3-dihydro-2H-isoindol-2-yl)ethanesulfonamide]",< 10 nM
4,"O=C(C1CC1)N1CCCC(CN(C(=O)C2CC2)c2cc(-c3c[nH]c4ncccc34)cc(Cl)n2)C1 (stereo not drawn) [Example 317, N-[6-chloro-4-(1H-pyrrolo[2,3-b]pyridin-3-yl)pyridin-2-yl]-N-{[1-(cyclopropylcarbonyl)piperidin-3-yl]methyl}cyclopropanecarboxamide]",10 to 100 nM
5,"O=C(NCCS(=O)(=O)N[C@H]1CC[C@H](Nc2cc(-c3c[nH]c4ncccc34)cc(Cl)n2)CC1)C1CC1 [Example 373, N-{2-[(trans-4-{[6-chloro-4-(1H-pyrrolo[2,3-b]pyridin-3-yl)pyridin-2-yl]amino}cyclohexyl)sulfamoyl]ethyl} cyclopropanecarboxamide]",< 10 nM
6,"CCNC(=O)N1CCCC(CNc2cc(-c3c[nH]c4ncccc34)cc(Cl)n2)C1 (stereo not drawn) [Example 98, 3-((6-chloro-4-(1H-pyrrolo[2,3-b]pyridin-3-yl)pyridin-2-ylamino)methyl)-N-ethylpiperidine-1-carboxamide]",< 10 nM
7,"O=C(NC1CCCC1)NC1CCC(Nc2cc(-c3c[nH]c4ncccc34)cc(Cl)n2)CC1 (stereo not drawn) [Example 60, 1-(4-{[6-chloro-4-(1H-pyrrolo[2,3-b]pyridin-3-yl)pyridin-2-yl]amino}cyclohexyl)-3-cyclopentylurea]",< 10 nM
8,"CC(=O)N1CCC(NC2CCC(Nc3cc(-c4c[nH]c5ncccc45)cc(Cl)n3)CC2)CC1 (stereo not drawn) [Example 369, 1-{4-[(4-{[6-chloro-4-(1H-pyrrolo[2,3-b]pyridin-3-yl)pyridin-2-yl]amino}cyclohexyl)amino]piperidin-1-yl}ethanone]",< 10 nM
9,"COc1cnc2[nH]cc(-c3cc(Cl)nc(N[C@H]4CC[C@H](NS(=O)(=O)C5CCCCC5)CC4)c3)c2c1 [Example 253, N-(trans-4-{[6-chloro-4-(5-methoxy-1H-pyrrolo[2,3-b]pyridin-3-yl)pyridin-2-yl]amino}cyclohexyl)cyclohexanesulfonamide]",< 10 nM
10,"CN1CCC(C(=O)NC2CCCC(Nc3cc(-c4c[nH]c5ncccc45)cc(Cl)n3)C2)CC1 (stereo not drawn) [Example 347, N-(3-{[6-chloro-4-(1H-pyrrolo[2,3-b]pyridin-3-yl)pyridin-2-yl]amino}cyclohexyl)-1-methylpiperidine-4-carboxamide]",< 10 nM
11,"O=S(=O)(NCCNc1cc(-c2c[nH]c3ncccc23)cc(Cl)n1)c1cccnc1 [Example 90, N-(2-{[6-chloro-4-(1H-pyrrolo[2,3-b]pyridin-3-yl)pyridin-2-yl]amino}ethyl)pyridine-3-sulfonamide]",< 10 nM
12,"O=C(NCC1CCCCC1)NC1CCCC(Nc2cc(-c3c[nH]c4ncccc34)cc(Cl)n2)C1 (stereo not drawn) [Example 303, 1-(3-{[6-chloro-4-(1H-pyrrolo[2,3-b]pyridin-3-yl)pyridin-2-yl]amino}cyclohexyl)-3-(cyclohexylmethyl)urea]",10 to 100 nM
13,"O=C(C1CCN1)N1CCC(Nc2cc(-c3c[nH]c4ncccc34)cc(Cl)n2)CC1 (stereo not drawn) [Example 117, Azetidin-2-yl(4-{[6-chloro-4-(1H-pyrrolo[2,3-b]pyridin-3-yl)pyridin-2-yl]amino}piperidin-1-yl)methanone]",< 10 nM
14,"O=S(=O)(CCNC1CCC1)NC1CCCC(Nc2cc(-c3c[nH]c4ncccc34)cc(Cl)n2)C1 (stereo not drawn) [Example 170, N-(3-{[6-chloro-4-(1H-pyrrolo[2,3-b]pyridin-3-yl)pyridin-2-yl]amino}cyclohexyl)-2-(cyclobutylamino)ethanesulfonamide]",< 10 nM
15,"CCN(CC)CC(C)(C)CNc1cc(-c2c[nH]c3ncccc23)cc(Cl)n1 [Example 333, N′-[6-chloro-4-(1H-pyrrolo[2,3-b]pyridin-3-yl)pyridin-2-yl]-N,N-diethyl-2,2-dimethylpropane-1,3-diamine]",< 10 nM
16,"O=C(CNC1CN2CCC1CC2)N[C@H]1CC[C@H](Nc2cc(-c3c[nH]c4ncccc34)cc(Cl)n2)CC1 (relative stereo) [Example 351, N~2~-1-azabicyclo[2.2.2]oct-3-yl-N-(trans-4-{[6-chloro-4-(1H-pyrrolo[2,3-b]pyridin-3-yl)pyridin-2-yl]amino}cyclohexyl)glycinamide]",< 10 nM
17,"Clc1cc(-c2c[nH]c3ncccc23)cc(Nc2ccc3ncccc3c2)n1 [Example 442, N-[6-chloro-4-(1H-pyrrolo[2,3-b]pyridin-3-yl)pyridin-2-yl]quinolin-6-amine]",< 10 nM
18,"Clc1cc(-c2c[nH]c3ncccc23)cc(NC2CCCC(NCC3CC3)C2)n1 (stereo not drawn) [Example 103, N-[6-chloro-4-(1H-pyrrolo[2,3-b]pyridin-3-yl)pyridin-2-yl]-N′-(cyclopropylmethyl)cyclohexane-1,3-diamine]",< 10 nM
19,"N#Cc1ccccc1N1CCN(CC(=O)N[C@H]2CC[C@H](Nc3cc(-c4c[nH]c5ncccc45)cc(Cl)n3)CC2)CC1 [Example 234, N-(trans-4-{[6-chloro-4-(1H-pyrrolo[2,3-b]pyridin-3-yl)pyridin-2-yl]amino}cyclohexyl)-2-[4-(2-cyanophenyl)piperazin-1-yl]acetamide]",< 10 nM
20,"COc1ccc(Nc2cc(-c3c[nH]c4ncccc34)cc(Cl)n2)cc1 [Example 411, 6-chloro-N-(4-methoxyphenyl)-4-(1H-pyrrolo[2,3-b]pyridin-3-yl)pyridin-2-amine]",< 10 nM
21,"O=C(NCCS(=O)(=O)NC1CCCC(Nc2cc(-c3c[nH]c4ncccc34)cc(Cl)n2)C1)C1CC1 (stereo not drawn) [Example 165, N-{2-[(3-{[6-chloro-4-(1H-pyrrolo[2,3-b]pyridin-3-yl)pyridin-2-yl]amino}cyclohexyl)sulfamoyl]ethyl}cyclopropanecarboxamide]",< 10 nM
22,"CCOC(=O)CNC(=O)NC1CCCC(Nc2cc(-c3c[nH]c4ncccc34)cc(Cl)n2)C1 (stereo not drawn) [Example 302, ethyl N-[(3-{[6-chloro-4-(1H-pyrrolo[2,3-b]pyridin-3-yl)pyridin-2-yl]amino}cyclohexyl)carbamoyl]glycinate]",< 10 nM
23,"O=C(N[C@H]1CC[C@H](Nc2cc(-c3c[nH]c4ncccc34)cc(Cl)n2)CC1)C1CC1 [Example 63, N-(trans-4-{[6-chloro-4-(1H-pyrrolo[2,3-b]pyridin-3-yl)pyridin-2-yl]amino}cyclohexyl)cyclopropanecarboxamide]",< 10 nM
24,"O=C(N[C@H]1CC[C@H](Nc2cc(-c3c[nH]c4ncccc34)cc(Cl)n2)CC1)C1CN(Cc2ccc(Cl)cc2Cl)C1 [Example 395, N-(trans-4-{[6-chloro-4-(1H-pyrrolo[2,3-b]pyridin-3-yl)pyridin-2-yl]amino}cyclohexyl)-1-(2,4-dichlorobenzyl)azetidine-3-carboxamide]",< 10 nM
25,"Cc1ccc(S(=O)(=O)NC2CCCC(Nc3cc(-c4c[nH]c5ncccc45)cc(Cl)n3)C2)cc1 (stereo not drawn) [Example 78, N-(3-{[6-chloro-4-(1H-pyrrolo[2,3-b]pyridin-3-yl)pyridin-2-yl]amino}cyclohexyl)-4-methylbenzenesulfonamide]",< 10 nM
